US5147878A, “Aminoalkoxyphenyl derivatives, process of preparation and compositions containing the same” (Sanofi, priority 1986, dated 1992)
Where a name gives a salt, the structure may show the parent alone.

System: isolated rat aorta
Test: Calcium inhibitory properties: contractile response to potassium-induced depolarization on isolated rat aorta
Design: species or system isolated organ, male Wistar rats
Settings: for activity at 1 µM / activity at 0.1 µM / activity at 0.01 µM / activity at 0.001 µM: Rattus norvegicus, 1 h, read-out: % of the maximum contractional effect; for % of the maximum contractional effect: 60 min; for activity at 0.001 µM: 10^-9 M
Text: It is well established that the depolarization of a smooth muscle membrane by potassium renders the latter permeable to extracellular calcium and induces muscle contraction. Consequently, the measurement of the inhibition of the contractile response to depolarization by potassium, or the measurement of a relaxation of the tonic contraction on potassium depolarization, can represent an evaluation of the power of a compound as an inhibitor of the membrane permeability to Ca^++ ions. The technique used was as follows: The aorta was removed from male Wistar rats weighing approximately 300 g, and cut into strips approximately 40 mm long and 3 mm wide. These fragments were placed in a 25-ml isolated organ trough containing a modified Krebs-bicarbonate solution (112 mM NaCl; 5 mM KCl; 25 mM NaHCO3; 1 mM KH2 PO4; 1.2 mM MgSO4; 2.5 mM CaCl2; 11.5 mM glucose, distilled water to 1000 ml) through which a stream of 5-7% carbon dioxide in oxygen was passed, and maintained at 37° C. The preparation was connected to a force microsensor and the contractile response recorded after amplification on a recorder. A tension of 2 g was applied to the preparation. This tension was maintained for 60 minutes in the modified Krebs-bicarbonate solution, and contractions were then induced by replacing the Krebs-bicarbonate solution by a potassium-Krebs solution (17 mM NaCl; 100 mM KCl; 25 mM NaHCO3; 1 mM KH2 PO4; 1.2 mM MgSO4; 2.5 mM CaCl2; 11.5 mM glucose; distilled water to 1000 ml). When the contractile response of the preparation had become reproducible, a given amount of a compound of the invention was introduced into the bath. Sixty minutes later, a new spasm was induced by potassium depolarization. The results obtained on the aorta used in the experiment were then expressed as a percentage of the maximum contractional effect before incubation with the test substance. By way of examples, the results which follow were obtained, the compounds of formula (1) being in the form of the base, hydrochloride or oxalate.

[1] = head printed "10^-" (exponent missing; first of three columns before 10^-6 M)

Structure (SMILES) | activity at 1 µM (10^-6 M) [%] | activity at 0.1 µM (10^-7 M) [%] | % of the maximum contractional effect [1] [%] | activity at 0.01 µM (10^-8 M) [%] | activity at 0.001 µM [%] | % of the maximum contractional effect (10^-6 M, 1 µM) [%] | % of the maximum contractional effect (10^-7 M, 0.1 µM) [%] | % of the maximum contractional effect (10^-8 M, 0.01 µM) [%]
COc1ccc(CCN(C)CCCOc2ccc(Sc3cnnc4ccccc34)cc2)cc1OC [Ex. 80, 4-[4-{3-[N-methyl-N-(3,4-dimethoxy-β-phenethyl)amino]propyloxy}phenylthio]cinnoline oxalate] | 64.2 | 85.4 | 3.0 | – | – | – | – | –
COc1ccc(CCN(C)CCCOc2ccc(S(=O)(=O)c3cc4ccccc4nn3)cc2)cc1OC [Ex. 81, 3-[4-{3-[N-methyl-N-(3,4-dimethoxy-β-phenethyl)amino]propyloxy}benzenesulphonyl]cinnoline oxalate] | 73.1 | 86.6 | 19.2 | – | – | – | – | –
COc1ccc(CCN(C)CCCOc2ccc(Sc3cc4ccccc4nn3)cc2)cc1OC [Ex. 82, 3-[4-{3-[N-methyl-N-(3,4-dimethoxy-β-phenethyl)amio]propyloxy}phenylthio]cinnoline oxalate] | 55 | 90.2 | 6.7 | – | – | – | – | –
COc1ccc(CN(C)CCCOc2ccc(S(=O)(=O)c3c(C(C)C)oc4ccccc34)cc2)cc1OC [Ex. 88, 2-isopropyl-3-[4-{3-[N-methyl-N-(3,4-dimethoxy-benzyl)amino)propyloxy}benzenesulphonyl]benzofuran acid oxalate] | 8.7 | 11.2 | – | 61.9 | 87 | – | – | –
COc1ccc(CN(C)CCOc2ccc(S(=O)(=O)c3c(C(C)C)oc4ccccc34)cc2)cc1OC [Ex. 89, 2-Isopropyl-3-[4-{2-[N-methyl-N-(3,4-dimethoxy-benzyl)amino]ethyloxy}benzenesulphonylbenzofuran hemioxalate] | – | 4.7 | – | 53.3 | 83.9 | – | – | –
COc1ccc(CCN(C)CCCOc2ccc(S(=O)(=O)c3c(C(C)C)oc4ccccc34)cc2)cc1OC.O=C(O)C(=O)O [Ex. 90, 2-Isopropyl-3-[4-{3-[N-methyl-N-(3,4-dimethoxy-β-phenethyl)amino]propyloxy}benzenesulphonyl]benzofuran acid oxalate] | – | – | – | – | – | 0 | 21.3 | 56.9
COc1ccc(CCN(C)CCOc2ccc(S(=O)(=O)c3c(C(C)C)oc4ccccc34)cc2)cc1OC [Ex. 91, 2-Isopropyl-3-[4-{2-[N-methyl-N-(3,4-dimethoxy-β-phenethyl)amino]ethyloxy}benzenesulphonylbenzofuran hemioxalate] | – | 11.1 | – | 53.9 | – | – | – | –
COc1ccc(CN(C)CCCCOc2ccc(S(=O)(=O)c3c(C(C)C)oc4ccccc34)cc2)cc1OC [Ex. 92, 2-Isopropyl-3-[4-{4-[N-methyl-N-(3,4-dimethoxy-benzyl)amino]butyloxy}benzenesulphonyl]benzofuran hemioxalate] | 3.8 | 31.5 | – | 61 | 80.8 | – | – | –
COc1ccc(CCN(C)CCCCOc2ccc(S(=O)(=O)c3c(C(C)C)oc4ccccc34)cc2)cc1OC [Ex. 93, 2-Isopropyl-3-[4-{4-[N-methyl-N-(3,4-dimethoxy-β-phenethyl)amino]butyloxy}benzenesulphonyl]benzofuran acid oxalate] | – | 33.6 | – | 53.1 | – | – | – | –
CC(C)c1oc2ccccc2c1S(=O)(=O)c1ccc(OCCCNCCc2ccc3c(c2)OCO3)cc1.O=C(O)C(=O)O [Ex. 95, 2-Isopropyl-3-[4-{3-[N-[3-(1,3-benzodioxolyl)]-β-ethyl]amino]propyloxy}benzenesulphonyl benzofuran acid oxalate] | – | – | – | – | – | 13.6 | 50.6 | 81.4
COc1ccc(CCN(C)CCCOc2ccc(S(=O)(=O)c3nccn3C(C)C)cc2)cc1OC [Ex. 96, 1-isopropyl-2-[4-{3-[N-methyl-N-(3,4-dimethoxy-β-phenethyl)amino]propyloxy}benzenesulphonyl]imidazole dihydrochloride] | 92.4 | 87.3 | 65.8 | – | – | – | – | –
COc1ccc(CCN(C)CCCOc2ccc(S(=O)(=O)c3nccn3Cc3ccccc3)cc2)cc1OC [Ex. 97, 1-benzyl-2-[4-{3-[N-methyl-N-(3,4-dimethoxy-β-phenethyl)amino]propyloxy}benzenesulphonyl]imidazole acid oxalate] | 66.7 | 87.5 | 23.5 | – | – | – | – | –
COc1ccc(CCN(C)CCCOc2ccc(S(=O)(=O)c3cn[nH]c3C(C)C)cc2)cc1OC [Ex. 100, 4-[4-{3-[N-methyl-N-(3,4-dimethoxy-β-phenethyl)amino]propyloxy}benzenesulphonyl]-5-isopropyl-pyrazole acid oxalate] | 62.5 | 87.6 | 15.1 | – | – | – | – | –
COc1ccc(CCN(C)CCCOc2ccc(S(=O)(=O)c3ccc4ccccc4c3)cc2)cc1OC [Ex. 103, 2-[4-{3-[N-methyl-N-(3,4-dimethoxy-β-phenethyl)amino]propyloxy}benzenesulphonyl]-naphthalene acid oxalate] | 16.8 | 62.8 | – | 83.3 | – | – | – | –
COc1ccc(CCN(C)CCCOc2ccc(S(=O)(=O)c3c(C(C)C)[nH]c4ccccc34)cc2)cc1OC [Ex. 105, 2-isopropyl-3-[4-{3-[N-methyl-N-(3,4-dimethoxy-β-phenethyl)amino]propyloxy}benzenesulphonyl]indole hemioxalate] | – | 11.9 | – | 62.9 | 83.6 | – | – | –
CCCCN(CCCC)CCCOc1ccc(S(=O)(=O)c2c(C(C)C)[nH]c3ccccc23)cc1 [Ex. 106, 2-Isopropyl-3-{4-[3-(di-n-butylamino)propyloxy]benzenesulphonyl}indole acid] | 4.9 | 37.4 | – | 66 | – | – | – | –
COc1ccc(CCN(C)CCCOc2ccc(S(=O)(=O)c3c(C(C)C)n(C)c4ccccc34)cc2)cc1OC [Ex. 109, 1-methyl-2-isopropyl-3-[4-{3-[N-methyl-N-(3,4-dimethoxy-β-phenethyl)amino]propyloxy}benzenesulphonyl]indole] | 0 | 5.1 | – | 34.5 | 71.4 | – | – | –
CCCCN(CCCC)CCCOc1ccc(S(=O)(=O)c2c(C(C)C)n(C)c3ccccc23)cc1 [Ex. 110, 1-Methyl-2-isopropyl-3-{4-[3-(di-n-butylamino)propyloxy]benzenesulphonyl}indole acid oxalate] | 0 | 15.1 | – | 71 | 84.6 | – | – | –
COc1ccc(CN(C)CCCOc2ccc(S(=O)(=O)c3c(C(C)C)n(C)c4ccccc34)cc2)cc1OC [Ex. 111, 1-Methyl-2-isopropyl-3-[4-{3-[N-methyl-N-(3,4-dimethoxy-benzyl)amino]propyloxy}benzenesulphonyl]indole acid oxalate] | – | 11.8 | – | 25 | 81.8 | – | – | –
CC(C)c1c(S(=O)(=O)c2ccc(OCCCNC(C)(C)C)cc2)c2ccccc2n1C [Ex. 112, 1-methyl-2-isopropyl-3-[4-{3-(tert-butylamino)propyloxy}benzenesulphonyl]indole] | 8.1 | 51.7 | – | 84.5 | – | – | – | –
